In data set [1] the test system is MCF-7 human breast adenocarcinoma xenografts. Description: MCF-7 xenograft study with untreated control (second study). The format is in vivo, nude mice. The conditions noted are these: for Tumour growth delay compared to controls: in words; for Max % weight loss / Median RTV2 / Growth delay: second study; for Max % weight loss: 100mg/kg/day i.p.; for Median RTV2: 100mg/kg/day i.p. days 0-17, n=8; for Growth delay: vs untreated control. The protocol:
The MCF-7 human breast adenocarcinoma model was selected for xenograft studies. […] An oestrogen pellet was implanted subcutaneously in the dorsal area 24 hours prior to 2-3mm^3 fragments of MCF-7 tumour taken from donor tumours transplanted subcutaneously in the abdominal flanks of the efficacy study mice. Once tumour volumes reached approximately 32 mm^3 (as measured by calipers, designated treatment Day 0) mice were randomised into one of three groups (n = 8) as follows: EPL001 or EPL030 at 100 mg/kg/day administered i.p. on […], plus a peptide-untreated (PBS only) control group. Tumour volume, using calipers, and animal body weight were recorded throughout the experiment and normalised to the respective tumour volume on the initial day of treatment (Day 0). Mann-Whitney U tests were conducted to determine the statistical significance of any differences in growth rate (based on tumour volume doubling time) between control and treated groups.
(§1) The MCF-7 human breast adenocarcinoma model was selected for two xenograft studies. An oestrogen pellet was implanted subcutaneously in the dorsal area 24 hours prior to 2-3mm^3 fragments of MCF-7 tumour taken from donor tumours transplanted subcutaneously in the abdominal flanks of the efficacy study mice. Once tumour volumes reached approximately 32 mm^3 (as measured by calipers, designated treatment day 0) mice were randomised into treatment groups (n=8).
In the second study three groups were used as follows: EPL001 or EPL030 at 100mg/kg/day administered i.p. on days 0-17, plus an untreated control group.
(§2) Tumour volume, using calipers, and animal body weight were recorded throughout the experiment and normalised to the respective volume on the initial day of treatment (day 0). Mann-Whitney U tests were conducted to determine the statistical significance of any differences in growth rate (based on tumour volume doubling time) between control and treated groups.

In another data set the test system is Caenorhabditis elegans. The conditions noted are these: 1μM per day into the aqueous medium; cited from earlier work. An excerpt:
As a control compound there was synthesized EPL030, having the aa sequence KLKMNGKNIEPVFT. This is a scrambling of EPL001’s sequence, based on cards drawn at random by one of us (CRM). […] The figures for fecundity were EPL001 +43 ... || Returning to EPL030, the scrambled-sequence EPL001 comparator, this has engendered perplexity by displaying the same activity as EPL001 across multiple mammalian systems. Thus, EPL030 suppressed human prostate cancer cells in vitro more than EPL001 in two laboratories and the proliferation of rat bone marrow cells in vitro in a third.

A further data set has as its system PC3 cells. Nature of the data set: MTS colorimetric viable cell assay, PC3. The format is cell-based, human. The conditions noted are these: for OD below that of EPL001: PC3 time course study. Here is the method: Assays involving a range of peptides from 14mer down to 6mers assessed total viable PC3 or PNT2 cells using a 96-well plate MTS colorimetric assay (CellTiter 96 Aqueous One Solution Cell Proliferation Assay, Promega, Southampton, UK), with absorbance measured at 492 nm. Cells were seeded at 8,000 per well and grown for 27h. Peptides were administered at the outset to a final concentration of 30 μM (in 2 μl) to samples in triplicate. (A higher dosage was used than in the 14mer peptides study to shorten the timecourse of response.) Controls received buffer. Data are OD mean +/ − SEM, with statistical analysis by two tailed t-test. A time course study of the 14mers on PC3s, using the same technique, involved measurements at 24h and 48h.
Fig 5 Effects of a range of peptides on human prostate cancer cell growth in vitro. Assays involved a range of peptides from 14mers down to 6mers (Table 1), with viable cells assessed using a 96-well plate MTS colorimetric assay. Absorbance measured at 492 nm. Cells were seeded at 8,000 per well and grown for 27h. Peptides were administered at the outset to a final concentration of 30 μM (in 2 μl) to samples in triplicate. Controls received buffer. Data are OD mean +/- SEM, with statistical analysis by two tailed t-test. * p<0.05; **p<0.025.

Data set [2] relates to circulating levels of the anterior pituitary hormones LH, GH and PRL. Nature of the data set: Intracerebroventricular infusion in sheep, RIA of circulating pituitary hormones. Format: in vivo, Ovis aries. The following applies: for GH, percentage difference between After and Before / LH, percentage difference between After and Before / PRL, percentage difference between After and Before: ICV 100 μg/h for 24h; for GH, After / LH, After / PRL, After: last 6h of ICV infusion, 100 μg/h for 24h, one sheep, RIA, mean +/− SEM. Here is the method:
A sheep study involved randomly selected Corriedale ewes (Ovis aries) of typically 5–6 years of age maintained under natural conditions at the Monash University Sheep Facility, Werribee, Victoria, Australia. EPL001 and EPL030 were subject to intracerebroventricular (ICV) infusion separately in vivo via a permanent cannula into the third ventricle of the brains of one sheep each at 100 μg/h for 24h. The zone that forms the floor of the third ventricle is that part of the hypothalamus called the median eminence. This is the anatomical interface between the brain and the anterior pituitary. Immunostaining in the ovine median eminence, in the form of axonal beading, has been reported with an anti-EPL001 antibody. The aim here was to evaluate the impact on the ovine hypothalamic-pituitary axis of infusion from above the hypothalamus. Circulating levels of the anterior pituitary hormones LH (luteinising hormone), GH (growth hormone) and PRL (prolactin) were measured by radioimmunoassay (RIA) prior to and in the closing stages of infusion. Systemic blood samples from an indwelling jugular venous cannula were taken at 10 min intervals for 6h prior to infusion (‘Before’) and over the last 6h of infusion (‘After’).

Data set [3] has as its system MCF-7 human breast adenocarcinoma xenografts. Nature of the data set: MCF-7 xenograft precursor study (first study). The format is in vivo, nude mice. The following applies: for Max % weight loss: 100mg/kg/day i.p.; for Median RTV2: 100mg/kg/day i.p. on 15 days between days 0 and 20, n=8. The protocol: as §1
In the first study four groups were used as follows: EPL001 or EPL030 at 100mg/kg/day administered i.p. on days 0, 1, 4, 5, 6, 7, 8, 11, 12, 13, 14, 15, 18, 19 and 20, plus a mouse anti-EPL001 monoclonal antibody or a control antibody directed at mouse haemocytes at 4mg/kg/day administered i.p. on days 0, 1, 2, 3, 4, 7, 8, 9, 10, 11, 14, 15, 16, 17 and 18 .
as §2

With “KLKMNGKNIEPVFT [EPL030, …, scrambled EPL001 control]”, the “Tumour growth delay compared to controls” value in data set [1] (100 mg/kg/day i.p., n = 8) is reported as “no statistically significant tumour growth delay”. Moreover, the “Tumour growth at termination compared with PBS-only controls” value in data set [1] (100 mg/kg/day i.p., n = 8, ns) is recorded as −20.2%. In data set [1], the “Max % weight loss” value was determined as 2.4%, the “Median RTV2” value was 3.6 days and the “Growth delay” value came to 0.1 days. For the same sequence, in the data set with Caenorhabditis elegans, the “Fecundity (number of eggs), cumulative totals vs untreated controls” value was −64% and the “Lifespan, average vs untreated controls” value was “+23%”. Moreover, in the data set on PC3 cells (24h), the “OD below that of EPL001” value is 18.9%. The “OD below that of EPL001” value in the data set on PC3 cells (48h) is listed as 51.3%. Besides, in data set [2], the “GH, percentage difference between After and Before” value is given as “+43.8%”; the “LH, percentage difference between After and Before” value is recorded as “+7.4%”; the “PRL, percentage difference between After and Before” value is recorded as −23.8%; the “GH, After” value stood at 7.82 ± 0.80 ng/mL. Also, in data set [2], the “LH, After” value is 12.89 ± 3.78 ng/mL and the “PRL, After” value amounted to 107.03 ± 18.92 ng/mL. In addition, in data set [3], the “Max % weight loss” value is 1.2% and the “Median RTV2” value was 7.3 days.
In the case of “MKPLTGKVKEFNNI [EPL001, 14mer master test peptide …; ovine provenance]”, in data set [1] (100 mg/kg/day i.p., n = 8), the “Tumour growth delay compared to controls” value is “no statistically significant tumour growth delay”. In data set [1], the “Max % weight loss” value stood at 0%, the “Median RTV2” value is given as 4.6 days and the “Growth delay” value came to 1.1 days. Also, in the data set on Caenorhabditis elegans, the “Fecundity (number of eggs), cumulative totals vs untreated controls” value is recorded as “+43%” and the “Lifespan, average vs untreated controls” value is listed as “+18%”. Moreover, the “Difference in percentage terms between control and test OD means” value in the data set on PC3 cells (PC3, 30 μM, 27h, MTS, 492 nm, triplicate) was −0.7%. Also, in data set [2], the “GH, percentage difference between After and Before” value was “+25.4%”; the “LH, percentage difference between After and Before” value is given as “+13.4%”; the “PRL, percentage difference between After and Before” value is −28.5%; the “GH, After” value stood at 3.41 ± 0.63 ng/mL. In addition, in data set [2], the “LH, After” value came to 6.48 ± 0.90 ng/mL and the “PRL, After” value was determined as 95.14 ± 21.62 ng/mL. In addition, in data set [3], the “Max % weight loss” value worked out at 3.6% and the “Median RTV2” value was 7.7 days. In data set [3] (EPL001 versus EPL030), the “Growth delay” value was 0.4 days.

(Values after paper PMC9714824, “Hexapeptides from mammalian inhibitory hormone hunt activate and inactivate nematode reproduction” (PLOS ONE, 2022).)
